In general, melting point refers to the temperature, or range, at which the solid turns liquid.

`CCC(=O)C1=C(O)CC(c2c(C)c([N+](=O)[O-])c(C)c([N+](=O)[O-])c2C)CC1=O` (centres undefined) displayed a melting point of 249 °C. For the molecule `Fc1ccc(C2CC(n3ccnc3)c3ccccc3N2)cc1` (centres undefined), the melting point fell in the range of 168 to 170 °C. Molecule `O=C(Nc1ccc(-c2ccccc2)cc1C(=O)O)OCc1ccc(-c2ccccc2)cc1` returned a melting point of 234 to 236 °C.

Turning to `N#Cc1cc(-c2cc(C(F)F)c3cnn(C4CCCCO4)c3n2)ccc1N` (centres undefined), the melting point stood at 192 °C. Consider `CC(=O)c1ccc(C2CCC(CC(=O)NC3CCN(Cc4ccc(Cl)c(Cl)c4)CC3)CC2)cc1` (centres undefined), for which the melting point stood at 168 °C. The molecule `COC(=O)c1cc(Cl)c(Oc2ccc(O)cc2)c(Cl)c1` came in with a melting point of 152 to 155 °C.

In turn, `CCCCC1CCC2NC(=O)C(=O)C2C1` (centres undefined) showed a melting point of 112 to 113 °C. `CCc1nn2c(O)cc(O)nc2c1S(=O)(=O)c1ccccc1` yielded a melting point of over 230 °C. In turn, `O=C(Oc1ccccc1)C(=O)Oc1ccc2c(c1)C(c1ccccc1)C(=O)O2` (centres undefined) yielded a melting point of 134 °C.

In turn, `CN(C)c1cc(CO)ncn1` returned a melting point of 137 to 139 °C. In turn, `Cc1cnc(NS(C)(=O)=O)cc1C(c1cc(F)ccc1F)S(=O)(=O)c1ccc(Cl)cc1` (centres undefined) yielded a melting point of 214 to 217 °C. Under `CCOC(=O)c1ccc(-c2[nH]nc3c2C(=O)c2c(NC(=O)NN4CCN(C)CC4)cccc2-3)s1` stands 249 °C. Molecule `COc1cc(OC)c2cc(-c3ccc(OC)nc3OC)oc2c1` came in with a melting point of 155 to 156 °C. `CC1=CC(c2ccccc2Cl)C(c2nnco2)=C(C)N1` (centres undefined): the melting point was 192 to 194 °C. `O=C(O)CCCOc1ccc([N+](=O)[O-])cc1` came in with a melting point of 116 to 118 °C.

Molecule `CC(C)(C)[PH](=O)Cc1ccccc1` (centres undefined) gave a melting point of 80 to 82 °C. With `CCOC(=O)c1ncn(-c2cc(C(F)(F)F)ccc2[N+](=O)[O-])c1C`, the melting point was found to be 140 °C. For `Cc1cc(=O)[nH]c(=O)n1C1OC(CO)C(O)C1O` (centres undefined), the melting point was 175 to 177 °C. `COc1cc(C(C)C)ccc1C1COc2c(C)c(C)cc(C)c21` (centres undefined): the melting point lay in the range of 102 to 103 °C. As to `COC(=O)c1ccc(-c2nc(-c3ccc(Cl)cc3)co2)cc1`, the melting point lay within 183 to 184 °C.

The molecule `Cc1ccc(C)c(S(=O)(=O)n2c(CCCC(=O)O)cc3nc(Cl)ccc32)c1` gave a melting point of 106 to 117 °C. In turn, `CCN1CCC2(CC1)OC(c1ccccc1)c1ccccc12` (centres undefined) showed a melting point of 113 to 115 °C.

Molecule `Oc1ccc(CN2CCOCC2)c2cccnc12` gave a melting point of 130 °C. On to `CN(C)C1CCN(c2nc(NCc3ccccc3)c3ncnc(NCc4ccccc4)c3n2)CC1`, for which the melting point lay in the range of 143 to 145 °C. The molecule `Cn1cc(OS(C)(=O)=O)c(=O)c2cccc(F)c21` gave a melting point of 207 to 209 °C.

As to `CNC(=O)C1OC(n2cnc3c(NCc4cc(Cl)ccc4OCc4cc(C)no4)ncnc32)C(O)C1NC(=O)OC(C)(C)C` (centres undefined), the melting point is 135 to 137 °C. Take `CCn1c2ccccc2c2cc(OC)c(C(=O)O)cc21`: the melting point fell in the range of 130 to 147 °C. `COC(=O)c1cccc2c1OCO2` came in with a melting point of 55 to 57 °C. As for `COC(=O)C1=C(N(c2ccccc2)c2ccccc2)CC(C(=O)OC)=C(N(c2ccccc2)c2ccccc2)C1`, the figure is 236 to 238 °C; as for `CCn1nnc(Cc2ccc(NC(=O)/C=C/c3cnn(C)c3-c3ccc(F)cc3)cc2)n1`, 187 to 188 °C; as for `Cc1cc(CCCCCOc2ccc(-c3nnco3)cc2)on1`, 84 to 86 °C. In turn, `Nc1ccccc1S(=O)(=O)c1cc(C(=O)O)ccc1Cl` registered a melting point of 235 to 238 °C. Consider `c1ccc2cc(OCc3ccc4ccccc4n3)ccc2c1`, for which the melting point lay in the range of 100 to 102 °C.

`Cc1ccc(/C=C/C(=O)Nc2cccc(NC(=N)c3ccccc3)c2)cc1` displayed a melting point of 147 to 149 °C. Molecule `O=C(SC[C@@H](SC(=O)c1ccccc1)C(=O)N1CCC[C@H]1C(=O)O)c1ccccc1` displayed a melting point of 195 to 196 °C. The molecule `C=CCNc1nc(NCC(C)(C)C)c2scc(C)c2n1` returned a melting point of 90 to 92 °C.

As to `COc1ccc(CSc2nnc(-c3ccc4occ(-c5ccc(OC)cc5)c4c3)o2)cc1`, the melting point was in the range of 162 to 163 °C. In the case of `CCC(=O)NCCCSc1ccc(Cl)cc1`, the melting point lay in the range of 69 to 70 °C.

With `CC(C)Cc1cc([N+](=O)[O-])c2c(c1O)C(=O)c1c(O)c(CC(C)C)cc([N+](=O)[O-])c1C2=O`, the melting point is 198 to 200 °C. As for `Cc1csc(C(=O)OC(C)C)c1S(N)(=O)=O`, the figure is 76 °C. Consider `Cc1c(CCl)ncn1C(c1ccccc1)(c1ccccc1)c1ccccc1`, for which the melting point lay in the range of 133 to 135 °C.

Regarding `COc1ccc2c(c1)CCC(=O)C2CC(=O)c1ccccc1` (centres undefined), the melting point is 55 to 59 °C. Molecule `OC1CSC(Oc2cccc(-c3cncnc3)c2)C(O)C1O` (centres undefined) yielded a melting point of 241 °C.

On to `COC(=O)[C@@H]1OCN(NS(=O)(=O)c2ccc([N+](=O)[O-])cc2)[C@H]1c1ccccc1`, for which the melting point is 160 to 162 °C. As for `COCCOc1cc2ncnc(NC3=CC(=O)C(Oc4ccc(-n5ccnc5)cc4)=CC3=O)c2cc1OC`, the melting point lay within 124 to 132 °C. Turning to `CC(CO)NCc1ccc(-c2cc3ncnc(Nc4ccc5[nH]ccc5c4)c3s2)cc1` (centres undefined), the melting point lay in the range of 160 to 175 °C.

In turn, `O=C(O)CSCCSc1cc(-c2ccccc2)c(O)c(-c2ccccc2)c1` yielded a melting point of 125 °C. The molecule `CSc1ccc(C2=C(c3ccc(CO)cc3)CCC2)cc1` gave a melting point of 82 to 85 °C. Take `CC(C)(C)C(O)c1ccc(CO)cc1` (centres undefined): the melting point was 91 to 95 °C. `Cn1cc(-c2cccc(C(F)(F)F)c2)c(=O)c(-c2ccccc2F)c1` registered a melting point of 152 to 154 °C. `CN(C)CCc1c[nH]c2ccc(CC3COC(=O)N3)cc12` (centres undefined): the melting point lay within 138 to 140 °C. `COc1ccc(C(=O)c2ccc(Cl)c(S(N)(=O)=O)c2)cc1` had a melting point of 156 to 158 °C. Take `CCCCNNc1nc(C)c(C(=O)OCC)c(Cl)c1[N+](=O)[O-]`: the melting point was 59 to 61 °C. `C=Cc1cn([C@@H]2O[C@H](C)[C@@H](OC(C)=O)[C@H]2OC(C)=O)c(=O)nc1N`: the melting point was 198 to 199 °C. Turning to `CC(C)OCC(=O)C1CCC2C3CCC4CC(O)CCC4(C)C3C(=O)CC12C` (centres undefined), the melting point lay in the range of 121 to 125 °C. `N#CCCNC(=O)c1cccc(-c2cccc(Oc3ccc(Cl)cc3)n2)c1` returned a melting point of 143 to 144 °C. In turn, `CC(C)(C)N(CCc1ccccc1)NC(=O)c1ccccc1` returned a melting point of 150 to 152 °C. Molecule `Oc1ccc(N2CCN(Cc3nc4ccccc4[nH]3)CC2)cc1` had a melting point of 206 to 209 °C. Turning to `O=C1OCCC1NS(=O)(=O)c1ccc(Cl)cc1` (racemic), the melting point is 113 to 115 °C. Take `CCOC(=O)c1ccc(NC(=O)C=C(c2ccc(F)cc2)c2ccc(F)cc2)cc1`: the melting point lay in the range of 161 to 163 °C.

`ClCCOc1ccc2ccccc2c1` displayed a melting point of 94 °C. As for `O=C(NCCO)c1ccc(-c2ccccn2)cc1`, the figure is 86 to 88 °C.

Molecule `CCOC(=O)C(C(=O)N(C)C)=C(OC(=O)c1ccccc1)c1ccc(Cl)cc1Cl` showed a melting point of 106 °C. `CC(=O)NCCCCc1ccc(C(=O)CC(C)C#N)cc1` (centres undefined) registered a melting point of 89 to 90 °C.

The record behind these values is a melting point compilation (Tetko et al.; mined from patent text by program, amines drawn as free bases though some values may be those of a salt).
